# Measurements reported in patent publication US7192760B2 (priority 2000, dated 2007).
# Like-named read-outs stand apart in the source and are kept apart here.
# What was measured:
# [1] = system: Brevibacterium lactofermentum KFCC-10680; assay: α-Aminobutyric acid resistance: growth on minimal medium containing α-aminobutyric acid; assay type: cell-based; conditions: strain KFCC-10680, cultivation at 30° C. for 6 days
# [2] = system: Brevibacterium lactofermentum CJJA22; assay: as above; assay type: cell-based; conditions: strain printed CJJA21; α-aminobutyric acid 20 g/l; cultivation at 30° C. for 6 days
# [3] = system: Brevibacterium lactofermentum KFCC-10680; conditions: strain KFCC-10680, cultivation at 30° C. for 6 days
# [4] = system: Brevibacterium lactofermentum CJJA21; conditions: strain CJJA21; sodium azide 800 mg/l; cultivation at 30° C. for 6 days
SMILES,growth ([1]; α-aminobutyric acid 5 g/l),growth ([1]; α-aminobutyric acid 10 g/l),growth ([1]; α-aminobutyric acid 15 g/l),growth ([1]; α-aminobutyric acid 20 g/l),growth [2],growth ([3]; sodium azide 100 mg/l),growth ([3]; sodium azide 200 mg/l),growth ([3]; sodium azide 300 mg/l),growth ([3]; sodium azide 500 mg/l),growth ([3]; sodium azide 800 mg/l),growth [4]
"CCC(N)C(=O)O (racemic) [α-aminobutyric acid, D,L-α-amino-n-butyric acid]",+,−,−,−,−,,,,,,
"[N-]=[N+]=[N-] [Sodium azide, sodium azide]",,,,,,+,+,−,−,−,−
